In patent publication US20110311633A1, “Combination of a Silicon Containing Component and a Hormone” (priority 2005, published 2011) one finds total protein concentration and total protein data, which are given here for 3 compounds.

For this assay, the system named is Pre-osteoblast cells. As to the kind of experiment: Pre-osteoblast cells in oestrogen-free environment, hormone with or without silicon, total protein.

Procedure: The cells for these respective experiments had also been passaged and maintained in media containing no added silicon (for the subsequent E2 or vehicle alone experiments) or containing 50 micromolar silicon (for the subsequent Si or E2+Si experiments).
Thus in experiments identical to those described above at the 48 hour time point, we investigated the effects of 10^−6 M progesterone instead of oestradiol.

With `C[C@]12CC[C@@H]3c4ccc(O)cc4CC[C@H]3[C@@H]1CC[C@@H]2O` [oestradiol], where the note is “10^-9 M E2, absence of silicon, varying lengths of time, versus baseline (vehicle), FIG. 2”, the total protein concentration result is reported as “no effect”.

With `CC(=O)[C@H]1CC[C@H]2[C@@H]3CCC4=CC(=O)CC[C@]4(C)[C@H]3CC[C@]12C` [progesterone], the total protein entry (10^-6 M progesterone together with silicon (50 micromolar), 48 hour time point, FIG. 4) is listed as “modest effect”.

As to orthosilicic acid, the total protein result (orthosilicic acid 50 micromolar without E2, oestrogen-free environment, FIG. 2) is given as “no significant effect”.
